Measurements as given in patent US9120785B2, “Pyridyl aminopyridines as Syk inhibitors” (Merck Sharp & Dohme Corp., priority 2011, dated 2015).

The compounds below were run against recombinant human GST-Syk (Homo sapiens (Human), UniProt P43405) (assay: Homogeneous Time-Resolved Fluorescence (HTRF) assay for the recombinant human Syk enzyme). Conditions: recombinant human GST-Syk 5 pM, ATP 25 μM; class symbols; read-out: rhSyk activity (IC50).
Format: biochemical
Protocol: Homogeneous Time-Resolved Fluorescence (HTRF) Assay for the Recombinant Human Syk Enzyme:
A recombinant GST-hSyk fusion protein was used to measure potency of compounds to inhibit human Syk activity. The recombinant human GST-Syk ([…] #08-176) (5 pM final concentration) was incubated with various concentrations of the inhibitor diluted in DMSO (0.1% final concentration) for 10 minutes at room temperature in 15 mM Tris-HCl (pH 7.5), 0.01% tween 20, 2 mM DTT in 384 well plate format. To initiate the reaction the biotinylated substrate peptide (250 nM final concentration) that contains the phosphorylation site for Syk was added with magnesium (5 mM final concentration) and ATP (25 μM final concentration). Final volume of the reaction was 10 μL. Phosphorylation of the peptide was allowed to proceed for 45 minutes at room temperature. To quench the reaction and detect the phosphorylated product, 2 nM of a Europium-anti-phosphotyrosine antibody (Perkin Elmer #AD0161) and 70 nM SA-APC (Perkin-Elmer #CR130-100) were added together in 15 mM Tris pH 7.5, 40 mM EDTA, 0.01% tween 20. Final volume of the quenching solution was 10 μL. The resulting HTRF signal was measured after 30 minutes on an EnVision (Perkin-Elmer) reader using a time-resolved fluorescence protocol.

IC50, ≤ 0.1 µM:
Cc1cc(Nc2cc(C(F)(F)F)ccn2)nc(-c2cnc(C(C)(O)C3CCC(C(=O)O)C(C)C3)s2)c1 (single isomer, unassigned) [Example 15-2, 4-{1-hydroxy-1-[5-(4-methyl-6-{[4-(trifluoromethyl)pyridin-2-yl]amino}pyridin-2-yl)-1,3-thiazol-2-yl]ethyl}-2-methylcyclohexanecarboxylic acid]
Cc1cc(Nc2cc(C(F)(F)F)ccn2)nc(-c2cnc(C(C)(O)C3CCC(C(=O)O)C(C)C3)s2)c1 (single isomer, unassigned) [Example 15-3, 4-{1-hydroxy-1-[5-(4-methyl-6-{[4-(trifluoromethyl)pyridin-2-yl]amino}pyridin-2-yl)-1,3-thiazol-2-yl]ethyl}-2-methylcyclohexanecarboxylic acid]
Cc1cc(Nc2cc(C(F)(F)F)ccn2)nc(-c2cnc(C(C)(O)C3CCC(C(=O)O)C(C)C3)s2)c1 (single isomer, unassigned) [Example 15-4, 4-{1-hydroxy-1-[5-(4-methyl-6-{[4-(trifluoromethyl)pyridin-2-yl]amino}pyridin-2-yl)-1,3-thiazol-2-yl]ethyl}-2-methylcyclohexanecarboxylic acid]
Cc1cc(Nc2cc(C(F)(F)F)ccn2)nc(-c2cnc(C(C)(O)C3CCC(C(=O)O)C(C)C3)s2)c1 (single isomer, unassigned) [Example 15-5, 4-{1-hydroxy-1-[5-(4-methyl-6-{[4-(trifluoromethyl)pyridin-2-yl]amino}pyridin-2-yl)-1,3-thiazol-2-yl]ethyl}-2-methylcyclohexanecarboxylic acid]
Cc1cc(Nc2cc(C(F)(F)F)ccn2)nc(-c2cnc(C(C)(O)C3CCC(C(=O)O)C(C)C3)s2)c1 (single isomer, unassigned) [Example 15-6, 4-{1-hydroxy-1-[5-(4-methyl-6-{[4-(trifluoromethyl)pyridin-2-yl]amino}pyridin-2-yl)-1,3-thiazol-2-yl]ethyl}-2-methylcyclohexanecarboxylic acid]
Cc1cc(Nc2cc(C(F)(F)F)ccn2)nc(-c2cnc(C(C)(O)C3CCC(C(=O)O)C(C)C3)s2)c1 (single isomer, unassigned) [Example 15-7, 4-{1-hydroxy-1-[5-(4-methyl-6-{[4-(trifluoromethyl)pyridin-2-yl]amino}pyridin-2-yl)-1,3-thiazol-2-yl]ethyl}-2-methylcyclohexanecarboxylic acid]
Cc1cc(Nc2cc(C(F)(F)F)ccn2)nc(-c2cnc(C(C)(O)C3CCC(C(=O)O)C(C)C3)s2)c1 (single isomer, unassigned) [Example 15-8, 4-{1-hydroxy-1-[5-(4-methyl-6-{[4-(trifluoromethyl)pyridin-2-yl]amino}pyridin-2-yl)-1,3-thiazol-2-yl]ethyl}-2-methylcyclohexanecarboxylic acid]
Cc1cc(Nc2cc(C(F)(F)F)ccn2)nc(-c2cnc(C(C)(O)C3CCC(C(=O)O)C(C)C3)s2)c1 (single isomer, unassigned) [Example 15-9, 4-{1-hydroxy-1-[5-(4-methyl-6-{[4-(trifluoromethyl)pyridin-2-yl]amino}pyridin-2-yl)-1,3-thiazol-2-yl]ethyl}-2-methylcyclohexanecarboxylic acid]
Cc1cc(Nc2cc(C(F)(F)F)ccn2)nc(-c2cnc(C(C)(O)C3CCC(C(=O)O)C(C)C3)s2)c1 (single isomer, unassigned) [Example 15-10, 4-{1-hydroxy-1-[5-(4-methyl-6-{[4-(trifluoromethyl)pyridin-2-yl]amino}pyridin-2-yl)-1,3-thiazol-2-yl]ethyl}-2-methylcyclohexanecarboxylic acid]
Cc1cc(Nc2cc(C(F)(F)F)ccn2)nc(-c2cnc(C(C)(O)C3CCC(C(=O)O)C(C)C3)s2)c1 (single isomer, unassigned) [Example 15-11, 4-{1-hydroxy-1-[5-(4-methyl-6-{[4-(trifluoromethyl)pyridin-2-yl]amino}pyridin-2-yl)-1,3-thiazol-2-yl]ethyl}-2-methylcyclohexanecarboxylic acid]
Cc1cc(Nc2cc(C(F)(F)F)ccn2)nc(-c2cnc(C(C)(O)C3CCC(C(=O)O)C(C)C3)s2)c1 (single isomer, unassigned) [Example 15-12, 4-{1-hydroxy-1-[5-(4-methyl-6-{[4-(trifluoromethyl)pyridin-2-yl]amino}pyridin-2-yl)-1,3-thiazol-2-yl]ethyl}-2-methylcyclohexanecarboxylic acid]
Cc1cc(Nc2cc(C(F)(F)F)ccn2)nc(-c2cnc(C(C)(O)C3CCC(C(=O)O)C(C)C3)s2)c1 (single isomer, unassigned) [Example 15-13, 4-{1-hydroxy-1-[5-(4-methyl-6-{[4-(trifluoromethyl)pyridin-2-yl]amino}pyridin-2-yl)-1,3-thiazol-2-yl]ethyl}-2-methylcyclohexanecarboxylic acid]
Cc1cc(Nc2cc(C(F)(F)F)ccn2)nc(-c2cnc(C(C)(O)C3CCNC3)s2)c1 (stereo not drawn) [Example 12, 1-[5-(4-Methyl-6-{[4-(trifluoromethyl)pyridin-2-yl]amino}pyridin-2-yl)-1,3-thiazol-2-yl]-1-(pyrrolidin-3-yl)ethanol]
Cc1cc(Nc2cc(C(F)(F)F)ccn2)nc(-c2cnc(C(C)(O)C3CCN(C(N)=O)C3)s2)c1 (stereo not drawn) [Example 13, 3-{1-Hydroxy-1-[5-(4-methyl-6-{[4-(trifluoromethyl)pyridin-2-yl]amino}pyridin-2-yl)-1,3-thiazol-2-yl]ethyl}pyrrolidine-1-carboxamide]
Cc1cc(Nc2cc(C(F)(F)F)ccn2)nc(-c2cnc(C(C)(O)[C@@H]3CC[C@H](C(=O)O)C(C)(C)C3)s2)c1 (stereo partly drawn) [Example 14-30, (1S,4R)-4-{1-hydroxy-1-[5-(4-methyl-6-{[4-(trifluoromethyl)pyridin-2-yl]amino}pyridin-2-yl)-1,3-thiazol-2-yl]ethyl}-2,2-dimethylcyclohexanecarboxylic acid]
Cc1cc(Nc2cc(C(F)(F)F)ccn2)nc(-c2cnc(C(C)(O)[C@H]3CC[C@H](C(=O)O)C(C)(C)C3)s2)c1 (stereo partly drawn) [Example 14-31, (1S,4S)-4-{1-hydroxy-1-[5-(4-methyl-6-{[4-(trifluoromethyl)pyridin-2-yl]amino}pyridin-2-yl)-1,3-thiazol-2-yl]ethyl}-2,2-dimethylcyclohexanecarboxylic acid]
Cc1cc(Nc2cc(C(F)(F)F)ccn2)nc(-c2cnc(C(C)(O)[C@H]3CC[C@H](C(=O)O)C(C)(C)C3)s2)c1 (stereo partly drawn) [Example 14-32, (1S,4S)-4-{1-hydroxy-1-[5-(4-methyl-6-{[4-(trifluoromethyl)pyridin-2-yl]amino}pyridin-2-yl)-1,3-thiazol-2-yl]ethyl}-2,2-dimethylcyclohexanecarboxylic acid]
Cc1ccnc(Nc2cc(C)cc(-c3cnc(C(C)(O)[C@H]4CC[C@H](C(=O)O)C(C)(C)C4)s3)n2)c1 (stereo partly drawn) [Example 14-33, (1S,4S)-4-[1-hydroxy-1-(5-{4-methyl-6-[(4-methylpyridin-2-yl)amino]pyridin-2-yl}-1,3-thiazol-2-yl)ethyl]-2,2-dimethylcyclohexanecarboxylic acid]
